For data set [1], the system named is patients with early AD. The experiment in a line: AFF006 clinical trial: adverse event summary of local reactions. Format: in vivo, human. The method, then: AFF006 was conducted as a randomized, placebo-controlled, parallel group, double-blind, multi-center phase II study and assessed the clinical and immunological activity as well as the safety and tolerability of repeated s.c. administrations of i.a. aluminium (different doses) in patients with early AD, as defined in the protocol. It was performed in a total of 6 countries: Austria, France, Germany, Slovakia, Czech Republic and Croatia.
The clinical trial comprised 10 regular outpatient visits and 6 telephone interviews. Up to four weeks before start of treatment, a screening visit (Visit 1) was performed to ensure suitability of the patients for the clinical trial and to establish the patients' baseline characteristics. Following screening, eligible patients were randomly allocated to the treatment groups. After randomization at week 0, patients received 6 injections with either 1 or 2 mg aluminium. Injections were applied s.c. by the investigator at weeks 0, 4, 8, 12, 40 and 65 (Visit 2, 3, 4, 5, 7 and 9).
At Visits 2, 3, 4, 5, 6, 7 and 9 possible local and systemic reactions to the vaccine and vital signs (blood pressure, heart rate, respiratory rate and body temperature) were assessed. In addition, a physical and neurological examination was performed. Efficacy parameters were assessed at Visits 1, 2, 3, 5, 6, 7, 8, 9, 10. The final visit (Visit 10) was performed twelve weeks after the last administration of study drug (Visit 9). An early discontinuation visit (EDV) was performed when a patient discontinued from the clinical trial.
During the study Visits 2, 3, 4, 5, 7 and 9 the patient received study drug by the investigator, in total: six injections over a 65-week treatment period. Injections were applied to the external surface of the upper arm, approximately 8-10 cm above the elbow. Prerequisite regarding the actual site was the presence of an intact regional lymph node station. If the draining lymph node stations of both upper arms were not intact, injection was placed into the thigh close to the inguinal lymph nodes. Two alternating injection sites (e.g. left and right upper arm, left upper arm and left thigh) were used throughout the 6 injections.
Injections were applied to the subcutaneous tissue (s.c.). Special care was taken to avoid […] application by careful aspiration before each injection. All administrations were performed at the trial site.
Safety evaluations included the following:
adverse events (AEs) and serious adverse events (SAEs) (number of patients who withdrew due to AEs; reason for withdrawal)

The next data set concerns Tg2576 mice. The experiment in a line: Contextual fear conditioning (CFC) in Tg2576 mice. The note with it: 6 monthly s.c. injections, Alum equivalent to 2 mg/ml.
The subject of data set [2] is patients with early AD. The experiment in a line: AFF006 clinical trial: Quality of Life (QOL) caregiver. Format: in vivo, human. The note with it: 2 mg compared to 1 mg and other groups, over a period of 18 months, FIG. 5. The source says:
Caregivers completed the measure as a questionnaire about their patients' QOL. The measure consisted of 13 items, rated on a 4 point scale, with 1 being poor and 4 being excellent. Outcomes are shown as the change over time using a least squares means from a mixed model.
QOL caregiver is a brief, 13-item questionnaire designed to specifically obtain a rating of the QOL of the patient from the caregiver's perspective. Questions cover relationships with friends and family, concerns about finances, physical condition, mood, and an overall assessment of life quality. All items are rated on a four-point scale, with 1 being poor and 4 being excellent. The total score is the sum of all items, which can range from 13 to 52. QOL caregiver values are presented here as the change from baseline. Outcomes were measured at Visits 1, 6, 8, and 10.

For data set [3], the system named is respective immunizing peptide. The experiment in a line: ELISA titer of vaccination induced IgG Abs against immunizing peptide in Tg2576-mice. Format: in vivo. The note with it: 6x s.c. at 4-week intervals, plasma at sacrification, background 1/100, FIG. 6A. The procedure: Alum doses used were equivalent to 2 mg/ml. Vaccination induced Abs were measured in plasma samples taken at sacrification (SeqID 1 (n=10), […], KLH-Alum (n=10) and Alum only (n=8)). Samples were analyzed for their concentration of IgG Abs against specific peptides. Values depicted are the titer calculated as OD max/2 (at 405 nm) plus SEM. IgG response towards the respective immunizing peptide (SeqID 1: anti SeqID 1; SeqID 2: anti SeqID 2, KLH-Alum: anti KLH, Alum: anti AD02); B) Reactivity towards human Aβ1-40/42 after immunization. […] Background for this assay was set to 1/100, indicated by black lines and an asterisk in A+B.
Substrates used include human (BACHEM, CH) Aβ1-40/42 (at 5 μg/ml), KLH (1 μg/ml) and peptide-Bovine serum albumin (BSA) conjugates (SeqID 1 and SeqID 2, 1 μM). Optical density (OD) was measured at 405 nm using a micro-well reader (Tecan, CH). ODmax/2 was calculated.
To test the immunogenicity of two Aβ targeting vaccines SeqID 1-KLH-Alum and SeqID 2-KLH Alum in comparison to KLH-Alum and Alum (Aluminium-oxyhydroxide) only, Tg2576-mice were injected 6×, s.c., at 4-week intervals with either conjugate-vaccine containing 30 μg net peptide, equivalent doses of KLH formulated with Alum or Alum only. […] Vaccination induced Abs were measured in plasma samples taken at sacrification (SeqID 1 (n=10), SeqID 2 (n=8), KLH-Alum (n=10) and Alum only (n=8)).

The subject of another data set is human Aβ1-40/42. The experiment in a line: ELISA reactivity of vaccination induced Abs towards human Aβ1-40/42 in Tg2576-mice. Format: in vivo. The note with it: 6x s.c. at 4-week intervals, plasma at sacrification, background 1/100, FIG. 6B.

Entries after “also recorded” stand apart in the source; their conditions may differ.

Experimental for human Aβ1-40/42: Alum doses used were equivalent to 2 mg/ml. Vaccination induced Abs were measured in plasma samples taken at sacrification (SeqID 1 (n=10), SeqID (n=8), KLH-Alum (n=10) and Alum only (n=8)). Samples were analyzed for their concentration of IgG Abs against specific peptides. Values depicted are the titer calculated as OD max/2 (at 405 nm) plus SEM. […] Background for this assay was set to 1/100, indicated by black lines and an asterisk in A+B.

For aluminium oxyhydroxide, in the data set with patients with early AD [1] (1 mg s.c., N = 48), the “Musculoskeletal and Connective Tissue Disorders: Pain in Extremity: events” value is on record as 0; the “Musculoskeletal and Connective Tissue Disorders: Pain in Extremity: subjects %” value is on record as 0.0%; the “Musculoskeletal and Connective Tissue Disorders: Pain in Extremity: subjects n” value is on record as 0; the “Vascular Disorders: Haematoma: subjects n” value turned out to be 0. Further, in the data set on patients with early AD [1] (2 mg s.c., N = 51), the “Musculoskeletal and Connective Tissue Disorders: Pain in Extremity: events” value came to 1; the “Musculoskeletal and Connective Tissue Disorders: Pain in Extremity: subjects n” value came out at 1; the “Vascular Disorders: Haematoma: subjects n” value was determined as 0. Moreover, in the data set with Tg2576 mice (FIG. 7, listed as Alum), the “contextual memory and learning (CFC, % of time freezing)” value is reported as “showed similar effects as detectable with Aβ targeting vaccines”. Moreover, in the data set on Tg2576 mice (FIG. 7, listed as aluminium-oxyhydroxide), the “contextual memory and learning (CFC, % of time freezing)” value is “lower cognitive decline significantly”. Moreover, in the data set with patients with early AD [2], the “QOL of the patient rated by caregivers (QOL-AD)” value is given as “significantly improved”. Besides, the “IgG titer towards the peptide used for immunization (ODmax/2)” value in data set [3] was “did not elicit signals above background”. In addition, in the data set on human Aβ1-40/42, the “Abs reactivity towards human Aβ1-40/42” value was “did not elicit signals above background; also recorded: do not show reactivity above background”.

The values above are taken from US10646565B2, “Treatment of alzheimer'S disease (AD) with an aluminum salt” (AFFIRIS AG, priority 2014, dated 2020).
